Results reported in patent US5910435A, “Method of folding proteins with synthetic dithiol catalysts” (Wisconsin Alumni Research Foundation, priority 1996, dated 1999).

Tests used:
[1] = tested on: pdilΔ Saccharomyces cerevisiae; assay: Rescue of PDI-deficient yeast on 5-FOA plates; format: cell-based; conditions: for survival of colonies of PDI-deficient yeast after selection against the PDI plasmid: minimal medium plates containing 5-FOA, BMC at 10 mM, DTT by the same procedure
Procedure: The ability of a synthetic diol protein catalyst to catalyze protein folding in vivo was tested by its ability to replace the function of PDI in a eukaryotic cell. The cells used for this procedure were pdilΔ Saccharomyces cerevisiae, which have a deletion in their PDI1 gene rendering the expressed enzyme dysfunctional. The PDI1 gene is an essential gene for survival of S. cerevisiae. To enable these cells to live, the cells contain a plasmid that directs expression of S. cerevisiae PDI. This plasmid also directs the expression of the […] gene product. These cells were streaked onto plates of minimal medium containing 5-fluoroorotic acid (5-FOA) which makes the URA3 gene product toxic to S. cerevisiae. Accordingly, this selects against presence of the plasmid and surviving cells will have neither the plasmid nor PDI.
This test was run with plates containing 5-FOA which also contained 0 or 10 mM BMC. […] No colonies survived on the plate without BMC.
Cells from the colonies rescued with BMC were then plated onto rich medium without BMC.
This same procedure was repeated with the disulfide bond reducing agent dithiothrietol (DTT). DTT is a low molecular weight dithiol with a higher pKa and a lower E°' than BMC.

[2] = cited from earlier work
scrambled ribonuclease A = assay: In vitro unscrambling of non-native disulfide bonds (regain of ribonucleolytic activity); format: biochemical; conditions: 0, 20 or 200 μM; 1 mM reduced and 0.2 mM oxidized glutathione, pH 7.6, 30° C.; FIG. 5
Procedure: Disulfide bonds form readily in an oxidizing environment. These disulfide bonds may not, however, be the ones that exist in the native, active conformation of a protein. The desirable property in a synthetic protein foldase is the ability to catalyze the unscrambling of non-native disulfide bonds. The ability of BMC to catalyze the unscrambling of non-native disulfide bonds in vitro was assayed by a method similar to that reported previously by our group and others. Laboissiere et al, Protein Express. Purif. 6:700-706 (1995).
This assay is based on the disulfide bonds in ribonuclease A, a well-characterized enzyme. In its native, enzymatically active conformation, ribonuclease A has eight cysteine residues which participate in four specific disulfide bonds. […]
In the assay, BMC was tested for its ability to catalyze the regain of enzymatic activity in scrambled ribonuclease A. This regain in activity can only occur by the isomerization (or unscrambling) of the non-native disulfide bonds. […] In this test, the aliquot was added to 500 μL of 100 mM MES-HCl buffer, pH 6.0, containing 100 mM NaCl and 10 mM poly(C) RNA, which is a substrate for ribonuclease A. Ribonucleolytic activity was monitored by following the change in absorbance at 238 nm which accompanies the cleavage of poly(C) by enzymatically active ribonuclease A.

PDI deficient yeast = assay: Complementation of PDI-deficient yeast with thioredoxin and its active-site mutants; format: cell-based
Source text: Because the proper folding of proteins is of significant scientific and commercial interest, systems have been designed to help to study protein folding. One such system is based on a yeast cells which lack a nuclear gene for the PDI enzyme, and are therefore incapable of catalyzing the formation of the proper disulfide bonds required for biological activity of proteins. Such yeast cells can be grown so long as they harbor a plasmid that produces PDI, but the cells promptly expire when the plasmid PDI is removed. The ability of mutant, altered, or engineered forms of PDI to rescue the PDI-deficient yeast cultures from death is a test of the suitability of such altered isoforms to properly fold proteins. Investigation into the function of PDI, and its use in the unscrambling of non-native disulfide bonds, is described by Laboissiere et al., J. Biol. Chem. 270:47:28006-28009 (1995). Based on this test system, it has been possible to determine that the motif for PDI activity consists of a particular amino acid domain. This domain is shared in common with the reducing bacterial enzyme thioredoxin. The domain has the consensus sequence Cys-X-X-Cys (SEQ ID NO: 1 or C-X-X-C, where X is an amino acid, Edman, Nature 317:267-270 (1985).
That study was conducted using mutant PDI deficient yeast. […]

Compound	survival of colonies of PDI-deficient yeast after selection against the PDI plasmid [1]	pKa relative to BMC [2]	time until surviving colonies appeared ([1]; 5-FOA plate with 10 mM BMC) [days]	catalysis of the regain of biological activity of a protein with scrambled disulfide bonds (scrambled ribonuclease A)	total yield of active protein, in the presence versus in the absence of the catalyst (scrambled ribonuclease A)	complementation (rescue) of PDI deficient yeast (PDI deficient yeast)
O[C@@H](CS)[C@@H](O)CS (relative stereo) [DTT, dithiothrietol, reference compound]	no yeast colonies could be rescued	higher				
O=C(CS)NC1CCCCC1NC(=O)CS (stereo not shown) [BMC, N,N'-bis(2-mercaptoacetyl)-1,2-diaminocyclohexane]	Surviving colonies appeared		5	significant catalysis	significantly greater	
thioredoxin: 12 kilodalton protein from E. coli, prokaryotic functional homolog of PDI, active site Cys-Gly-Pro-Cys						failed
